Read-outs that look alike come from different tables or passages of the source.
Experiments:
Test in all cases: Test F pre-/postemergence plant response
Format in all cases: in vivo
[1] = system: field bindweed (Convolvulus arvensis); settings: Convolvulus arvensis, scale 0 to 100, read-out: Plant response rating, Field Bindweed
Method in brief: (§1)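 Values are visual ratings, where 100 is complete control and 0 is no effect, given after 14 to 21 days of greenhouse growth. Test chemicals in a non-phytotoxic, surfactant-containing solvent were sprayed on soil just after planting or on emerged seedlings at the 1- to 4-leaf stage.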

[2] = system: dayflower (Virginia (VA) dayflower, Commelina virginica); settings: Commelina virginica, scale 0 to 100, read-out: Plant response rating, Dayflower, VA
Method in brief: as §1

[3] = system: barnyardgrass (Echinochloa crus-galli); settings: Echinochloa crus-galli, scale 0 to 100, read-out: Plant response rating, Barnyardgrass
Method in brief: as §1

[4] = system: large (Lg) crabgrass (Digitaria sanguinalis); settings: Digitaria sanguinalis, pre-emergence, scale 0 to 100, read-out: Plant response rating, Crabgrass, Large
Method in brief: as §1

[5] = system: arrowleaf sida (Sida rhombifolia); settings: Sida rhombifolia, scale 0 to 100, read-out: Plant response rating, Arrowleaf Sida
Method in brief: as §1

[6] = system: wild poinsettia (Euphorbia heterophylla); settings: Euphorbia heterophylla, scale 0 to 100, read-out: Plant response rating, Poinsettia, Wild
Method in brief: as §1

[7] = system: hairy beggarticks (Bidens pilosa); settings: Bidens pilosa, scale 0 to 100, read-out: Plant response rating, Beggarticks
Method in brief: as §1

soybean (Glycine max) = settings: Glycine max, scale 0 to 100, read-out: Plant response rating, Soybean
Method in brief: as §1

[8] = system: velvetleaf (Abutilon theophrasti); settings: Abutilon theophrasti, pre-emergence, scale 0 to 100, read-out: Plant response rating, Velvetleaf
Method in brief: as §1

[9] = system: giant foxtail (Setaria faberii); settings: Setaria faberi, pre-emergence, scale 0 to 100, read-out: Plant response rating, Foxtail, Giant
Method in brief: as §1

[10] = system: johnsongrass (Sorghum halepense); settings: Sorghum halepense, pre-emergence, scale 0 to 100, read-out: Plant response rating, Johnsongrass
Method in brief: as §1

[11] = system: surinam grass (Brachiaria decumbens); settings: Urochloa decumbens, pre-emergence, scale 0 to 100, read-out: Plant response rating, Surinam Grass
Method in brief: as §1

[12] = system: goosegrass (Eleusine indica); settings: Eleusine indica, pre-emergence, scale 0 to 100, read-out: Plant response rating, Goosegrass
Method in brief: as §1

[13] = system: yellow nutsedge (Cyperus esculentus); settings: Cyperus, pre-emergence, scale 0 to 100, read-out: Plant response rating, Nutsedge, Yellow
Method in brief: as §1

[14] = system: waterhemp (common waterhemp, Amaranthus rudis); settings: Amaranthus tuberculatus, scale 0 to 100, read-out: Plant response rating, Waterhemp
Method in brief: as §1

[15] = system: sandbur (southern sandbur, Cenchrus echinatus); settings: Cenchrus echinatus, scale 0 to 100, read-out: Plant response rating, Sandbur
Method in brief: as §1

[16] = post-emergence, 8 g ai/ha Postemergence
[17] = post-emergence, 16 g ai/ha Postemergence
[18] = post-emergence, 31 g ai/ha Postemergence
[19] = post-emergence, 62 g ai/ha Postemergence
[20] = post-emergence, 125 g ai/ha Postemergence
[21] = pre-emergence, 8 g ai/ha Preemergence
[22] = pre-emergence, 16 g ai/ha Preemergence
[23] = pre-emergence, 31 g ai/ha Preemergence
[24] = pre-emergence, 62 g ai/ha Preemergence
[25] = pre-emergence, 125 g ai/ha Preemergence

`FC(F)c1cc(-c2ccccc2Oc2ncc(Cl)cn2)on1` [Compound 53, 5-chloro-2-[2-[3-(difluoromethyl)-5-isoxazolyl]phenoxy]pyrimidine] showed a pest or weed control at 8 g/ha [1, 16] of 30%, a pest or weed control at 16 g/ha [1, 17] of 55% and a pest or weed control at 31 g/ha [1, 18] of 50%. The pest or weed control at 62 g/ha [1, 19] was 50%, the pest or weed control at 125 g/ha [1, 20] was 60% and the pest or weed control at 8 g/ha [1, 21] was 0%. It also gave a pest or weed control at 16 g/ha [1, 22] of 0%, a pest or weed control at 31 g/ha [1, 23] of 0% and a pest or weed control at 62 g/ha [1, 24] of 0%. For the same compound, the pest or weed control at 125 g/ha [1, 25] was 0%, the pest or weed control at 8 g/ha [2, 16] was 30% and the pest or weed control at 16 g/ha [2, 17] was 40%. It also gave a pest or weed control at 31 g/ha [2, 18] of 30%, a pest or weed control at 62 g/ha [2, 19] of 50% and a pest or weed control at 125 g/ha [2, 20] of 60%. The pest or weed control at 8 g/ha [2, 21] was 0%, the pest or weed control at 16 g/ha [2, 22] was 0% and the pest or weed control at 31 g/ha [2, 23] was 0%. The pest or weed control at 62 g/ha [2, 24] was 50%, the pest or weed control at 125 g/ha [2, 25] was 95% and the pest or weed control at 8 g/ha [3, 16] was 0%. The pest or weed control at 16 g/ha [3, 17] was 0%, the pest or weed control at 31 g/ha [3, 18] was 0% and the pest or weed control at 62 g/ha [3, 19] was 0%. For the same compound, the pest or weed control at 125 g/ha [3, 20] was 10%, the pest or weed control at 8 g/ha [3, 21] was 0% and the pest or weed control at 16 g/ha [3, 22] was 0%. It also gave a pest or weed control at 31 g/ha [3, 23] of 0%, a pest or weed control at 62 g/ha [3, 24] of 20% and a pest or weed control at 125 g/ha [3, 25] of 50%. It also gave a pest or weed control at 8 g/ha ([4]; 8 g ai/ha Preemergence) of 0%, a pest or weed control at 16 g/ha ([4]; 16 g ai/ha Preemergence) of 0% and a pest or weed control at 31 g/ha ([4]; 31 g ai/ha Preemergence) of 15%. The pest or weed control at 62 g/ha ([4]; 62 g ai/ha Preemergence) was 80%, the pest or weed control at 125 g/ha ([4]; 125 g ai/ha Preemergence) was 98% and the pest or weed control at 8 g/ha [5, 16] was 70%. It also gave a pest or weed control at 16 g/ha [5, 17] of 90%, a pest or weed control at 31 g/ha [5, 18] of 98% and a pest or weed control at 62 g/ha [5, 19] of 100%. It also gave a pest or weed control at 125 g/ha [5, 20] of 98%, a pest or weed control at 8 g/ha [5, 21] of 0% and a pest or weed control at 16 g/ha [5, 22] of 20%. It also gave a pest or weed control at 31 g/ha [5, 23] of 65%, a pest or weed control at 62 g/ha [5, 24] of 100% and a pest or weed control at 125 g/ha [5, 25] of 100%. The pest or weed control at 8 g/ha [6, 16] was 50%, the pest or weed control at 16 g/ha [6, 17] was 50% and the pest or weed control at 31 g/ha [6, 18] was 60%. For the same compound, the pest or weed control at 62 g/ha [6, 19] was 70%, the pest or weed control at 125 g/ha [6, 20] was 70% and the pest or weed control at 8 g/ha [6, 21] was 0%. The pest or weed control at 16 g/ha [6, 22] was 0%, the pest or weed control at 31 g/ha [6, 23] was 0% and the pest or weed control at 125 g/ha [6, 25] was 0%. It also gave a pest or weed control at 62 g/ha ([6]; pre-emergence, Preemergence) of 0%, a pest or weed control at 8 g/ha [7, 16] of 15% and a pest or weed control at 16 g/ha [7, 17] of 30%. The pest or weed control at 31 g/ha [7, 18] was 40%, the pest or weed control at 62 g/ha [7, 19] was 50% and the pest or weed control at 125 g/ha [7, 20] was 60%. For the same compound, the pest or weed control at 8 g/ha [7, 21] was 0%, the pest or weed control at 16 g/ha [7, 22] was 0% and the pest or weed control at 31 g/ha [7, 23] was 0%. For the same compound, the pest or weed control at 62 g/ha [7, 24] was 30%, the pest or weed control at 125 g/ha [7, 25] was 20% and the plant injury at 8 g/ha (soybean (Glycine max); [16]) was 40%. The plant injury at 16 g/ha (soybean (Glycine max); [17]) was 80%, the plant injury at 31 g/ha (soybean (Glycine max); [18]) was 95% and the plant injury at 62 g/ha (soybean (Glycine max); [19]) was 95%. The plant injury at 125 g/ha (soybean (Glycine max); [20]) was 95%, the plant injury at 8 g/ha (soybean (Glycine max); [21]) was 0% and the plant injury at 16 g/ha (soybean (Glycine max); [22]) was 0%. The plant injury at 31 g/ha (soybean (Glycine max); [23]) was 0%, the plant injury at 125 g/ha (soybean (Glycine max); [25]) was 35% and the plant injury at 62 g/ha (soybean (Glycine max); pre-emergence, Preemergence) was 0%. It also gave a pest or weed control at 8 g/ha ([8]; 8 g ai/ha Preemergence) of 0%, a pest or weed control at 16 g/ha ([8]; 16 g ai/ha Preemergence) of 65% and a pest or weed control at 31 g/ha ([8]; 31 g ai/ha Preemergence) of 90%. For the same compound, the pest or weed control at 125 g/ha ([8]; 125 g ai/ha Preemergence) was 100%, the pest or weed control at 62 g/ha ([8]; Preemergence) was 100% and the pest or weed control at 8 g/ha ([9]; 8 g ai/ha Preemergence) was 0%. It also gave a pest or weed control at 16 g/ha ([9]; 16 g ai/ha Preemergence) of 0%, a pest or weed control at 31 g/ha ([9]; 31 g ai/ha Preemergence) of 20% and a pest or weed control at 62 g/ha ([9]; 62 g ai/ha Preemergence) of 70%. The pest or weed control at 125 g/ha ([9]; 125 g ai/ha Preemergence) was 95%, the pest or weed control at 8 g/ha ([10]; 8 g ai/ha Preemergence) was 0% and the pest or weed control at 16 g/ha ([10]; 16 g ai/ha Preemergence) was 0%. The pest or weed control at 31 g/ha ([10]; 31 g ai/ha Preemergence) was 0%, the pest or weed control at 125 g/ha ([10]; 125 g ai/ha Preemergence) was 5% and the pest or weed control at 62 g/ha ([10]; Preemergence) was 0%. It also gave a pest or weed control at 8 g/ha ([11]; 8 g ai/ha Preemergence) of 0%, a pest or weed control at 16 g/ha ([11]; 16 g ai/ha Preemergence) of 0% and a pest or weed control at 31 g/ha ([11]; 31 g ai/ha Preemergence) of 0%. The pest or weed control at 125 g/ha ([11]; 125 g ai/ha Preemergence) was 0%, the pest or weed control at 62 g/ha ([11]; Preemergence) was 0% and the pest or weed control at 8 g/ha ([12]; 8 g ai/ha Preemergence) was 0%. For the same compound, the pest or weed control at 16 g/ha ([12]; 16 g ai/ha Preemergence) was 0%, the pest or weed control at 31 g/ha ([12]; 31 g ai/ha Preemergence) was 0% and the pest or weed control at 125 g/ha ([12]; 125 g ai/ha Preemergence) was 60%. The pest or weed control at 62 g/ha ([12]; Preemergence) was 10%, the pest or weed control at 8 g/ha ([13]; 8 g ai/ha Preemergence) was 0% and the pest or weed control at 16 g/ha ([13]; 16 g ai/ha Preemergence) was 0%. It also gave a pest or weed control at 31 g/ha ([13]; 31 g ai/ha Preemergence) of 0%, a pest or weed control at 125 g/ha ([13]; 125 g ai/ha Preemergence) of 20% and a pest or weed control at 62 g/ha ([13]; Preemergence) of 0%. It also gave a pest or weed control at 8 g/ha [14, 16] of 80%, a pest or weed control at 16 g/ha [14, 17] of 95% and a pest or weed control at 31 g/ha [14, 18] of 98%. The pest or weed control at 62 g/ha [14, 19] was 100%, the pest or weed control at 125 g/ha [14, 20] was 100% and the pest or weed control at 8 g/ha [14, 21] was 0%. The pest or weed control at 16 g/ha [14, 22] was 0%, the pest or weed control at 31 g/ha [14, 23] was 95% and the pest or weed control at 125 g/ha [14, 25] was 100%. It also gave a pest or weed control at 62 g/ha ([14]; pre-emergence, Preemergence) of 100%, a pest or weed control at 8 g/ha [15, 16] of 0% and a pest or weed control at 16 g/ha [15, 17] of 0%. The pest or weed control at 31 g/ha [15, 18] was 0%, the pest or weed control at 62 g/ha [15, 19] was 5% and the pest or weed control at 125 g/ha [15, 20] was 10%. It also gave a pest or weed control at 8 g/ha [15, 21] of 0%, a pest or weed control at 16 g/ha [15, 22] of 0% and a pest or weed control at 31 g/ha [15, 23] of 0%. For the same compound, the pest or weed control at 125 g/ha [15, 25] was 0% and the pest or weed control at 62 g/ha ([15]; pre-emergence, Preemergence) was 0%.
